Laboratory results published in US9518000B2, “Bicyclo [2.2.1] acid GPR120 modulators” (BRISTOL-MYERS SQUIBB COMPANY, priority 2013, dated 2016).

Biological target: human GPR120 (Homo sapiens (Human), UniProt Q5NUL3)
Assay: GPR120 pERK AlphaScreen SureFire Assay (human GPR120 pERK assay)
Assay type: cell-based
Details: CHOA12 or CHO-K1 cells stably transfected with the short form of human GPR120 receptor; phosphorylated ERK; read-out: EC50 values measured in the human GPR120 pERK assay
Excerpt: GPR120 activity was monitored by measuring phosphorylation of ERK (pERK), since G protein receptors are known to activate the ERK signaling cascade either directly and/or through recruitment of arrestin that serves as a scaffold for downstream signaling events.
GPR120 pERK AlphaScreen SureFire Assay
The human and mouse GPR120-mediated intracellular phosphorylated ERK assays were established using CHOA12 cells stably transfected with the short form of human or mouse GPR120 receptor. Cells were cultured in growth medium consisting of F-12 media (Invitrogen Cat. #11765) with 5% Charcoal/Dextran FBS (Invitrogen Cat. #12676-029), 500 μg/mL GENETICIN® (Life Technologies Cat. #10131-027) and 250 μg/mL Zeocin (Invitrogen Cat. #R250-01). Cells were cryo preserved at a concentration of 2×10^7 cells/mL, in 90% Charcoal/Dextran FBS and 10% DMSO, and frozen in liquid nitrogen at a low passage number.
For the pERK assay, 2×10^7 cells/mL cryopreserved human and mouse cells were thawed rapidly in a 37° C. water bath and added to a T-225 flask containing 50 mL growth medium. The flasks were placed in a tissue culture incubator overnight (37° C., 5% CO2). The next day, cells were harvested with trypsin (Gibco Cat. #25300-054), resuspended in serum-containing growth medium and counted using a Cellometer and volume adjusted to a concentration of 0.6×10^6 cells/mL. Cells were plated into 384-well clear bottom tissue culture plates (BD Cat. #353962) at 50 μL/well, for a density of 30,000 cells/well using a MULTIDROP® and incubated for 16-18 hours (overnight) at 37° C. with 5% CO2. The next day, cells were serum starved in 30 μL of F-12 media without any serum or antibiotics for 2 hours at 37° C.
Test compounds were 3-fold, 11-point serially diluted in DMSO in a REMP assay plate (Matrix Cat. #4307) by Tecan and 5 μL was transferred into an ECHO source plate (LabCyte Cat. #LC-0200). Cells were then stimulated with 50 nL of compound dilutions using ECHO liquid handler for 7 minutes at 37° C. Compounds ranged from final assay concentrations of 33.33 μM to 0.56 nM.
The media was then dumped and cells lysed with 20 μL of 1× Lysis buffer from the AlphaScreen SureFire Phospho-ERK 1/2 Kit (Perkin Elmer Cat. #6760617M). The lysis buffer was diluted 5-fold with water before use. The plate was agitated on a shaker for 10 minutes after which 2 μL was transferred into a 384-well white proxiplate (Perkin Elmer Cat. #6008289). The SureFire assay reagent mix was prepared by mixing 60 parts Reaction Buffer, 10 parts Activation Buffer, 1 part Donor Beads, 1 part Acceptor Beads (Perkin Elmer Cat. #TGRES10K). 3.5 μL/well of this reagent mix was manually added to the proxiplate with a multichannel pipettor. Plates were spun down at 1000 rpm for 2 minutes, followed by light-protected incubation at room temperature for 2 hours. The plates were read on the Alpha-technology compatible Envision multilabel plate reader using AlphaScreen protocol according to manufacturer's specifications. The agonist effect of compounds was expressed as 100×(average sample-average blank)/(average total−average blank) where sample is the luminescence activity in the presence of test compound, blank is equal to the luminescence activity in the presence of DMSO control and the total is signal induced by 50 μM linolenic acid as reference compound. Activation data for the test compound over a range of concentrations was plotted as percentage activation of the test compound (100%=maximum response). After correcting for background, EC50 values were determined. The EC50 is defined as the concentration of test compound which produces 50% of the maximal response and was quantified using the 4 parameter logistic equation to fit the data.
The human and mouse GPR120-mediated intracellular phosphorylated ERK assays were also established using CHO-K1 cells stably transfected with the short form of human or mouse GPR120 receptor. […]

Chain of human GPR120 (Q5NUL3 whole entry): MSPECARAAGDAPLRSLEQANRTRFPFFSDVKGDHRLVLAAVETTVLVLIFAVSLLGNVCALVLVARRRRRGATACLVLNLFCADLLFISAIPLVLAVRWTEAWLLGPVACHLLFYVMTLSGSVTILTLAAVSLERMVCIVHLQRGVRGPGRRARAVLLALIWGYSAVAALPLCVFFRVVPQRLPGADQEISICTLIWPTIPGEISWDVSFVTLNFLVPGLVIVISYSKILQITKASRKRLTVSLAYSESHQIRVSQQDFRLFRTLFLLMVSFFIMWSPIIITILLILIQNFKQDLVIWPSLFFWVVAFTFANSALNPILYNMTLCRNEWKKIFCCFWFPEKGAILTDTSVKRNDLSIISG

| EC50 [nM] | Compound |
| --- | --- |
| 540 | O=C(O)CCCC12CCC(OCc3cccc(SC(F)(F)F)c3)(CC1)C2 [Example 50, 4-(4-(3-(trifluoro-methylthio)benzyloxy)bicyclo[2.2.1]heptan-1-yl) butanoic acid] |
| 170 | O=C(O)CCCC12CCC(OCc3cccc(C(F)(F)F)c3Cl)(CC1)C2 [Example 55, 4-(4-(2-chloro-3-(trifluoromethyl)benzyloxy) [2.2.1]heptan-1-yl)butanoic acid] |
| 260 | O=C(O)CCCC12CCC(OCc3cc(OC(F)(F)F)ccc3F)(CC1)C2 [Example 33, 4-(4-(2-fluoro-5-(trifluorometh-oxy)benzyloxy)bicyclo[2.2.1]heptan-1-yl) butanoic acid] |
| 1720 | O=C(O)CCCC12CCC(OCc3ccc(Oc4ccccc4)cc3)(CC1)C2 [Example 58, 4-(4-(4-phenoxy-benzyloxy)bicyclo[2.2.1]heptan-1-yl) butanoic acid] |
| 530 | CC1(C)Cc2cc(Cl)cc(COC34CCC(CCCC(=O)O)(CC3)C4)c2O1 [Example 3, 4-(4-((5-chloro-2,2-dimethyl-2,3-dihydro-benzofuran-7-yl)methoxy)bicyclo[2.2.1]heptan-1-yl) butanoic acid] |
| 590 | O=C(O)CCCC12CCC(OCc3cccc(Oc4ccc(Cl)cc4)c3)(CC1)C2 [Example 32, 4-(4-(3-(4-chlorophenoxy)benzyloxy)bicyclo [2.2.1]heptan-1-yl) butanoic acid] |
| 6120 | O=C(O)CCCC12CCC(OCc3cccc(F)c3F)(CC1)C2 [Example 53, 4-(4-(2,3-difluorobenzyloxy)bicyclo[2.2.1]heptan-1-yl) butanoic acid] |
| 570 | O=C(O)COCCC12CCC(OCc3cc(F)cc(Oc4ccccc4)c3)(CC1)C2 [Example 100, 2-(2-(4-((3-Fluoro-5-phenoxybenzyl)oxy)bicyclo[2.2.1]heptan-1-yl)ethoxy)acetic acid] |
| 750 | O=C(O)CCCC12CCC(OCc3cccc(-c4cccs4)c3)(CC1)C2 [Example 61, 4-(4-(3-(thiophen-2-yl)benzyloxy)bicyclo[2.2.1]heptan-1-yl) butanoic acid] |
| 1100 | O=C(O)CCCC12CCC(OCc3ccc(Cl)cc3Cl)(CC1)C2 [Example 41, 4-(4-(2,4-dichlorobenzyloxy)bicyclo[2.2.1]heptan-1-yl) butanoic acid] |
| 1560 | Cc1cc(COC23CCC(CCCC(=O)O)(CC2)C3)n(-c2ccc(Cl)cc2)n1 [Example 1, 4-(4-((1-(4-Chlorophenyl)-3-methyl-1H-pyrazol-5-yl)methoxy)bicyclo[2.2.1]heptan-1-yl) butanoic acid] |
| 6720 | Cc1ccc(COC23CCC(CCCC(=O)O)(CC2)C3)cc1F [Example 12, 4-(4-(3-fluoro-4-methylbenzyl-oxy)bicyclo [2.2.1]heptan-1-yl)butanoic acid] |
| 930 | O=C(O)CCCC12CCC(OCc3cc(F)ccc3OC(F)(F)F)(CC1)C2 [Example 44, 4-(4-(5-fluoro-2-(trifluorometh-oxy)benzyloxy)bicyclo[2.2.1]heptan-1-yl) butanoic acid] |
| 1510 | O=C(O)CCCC12CCC(OCc3ccccc3C(F)(F)F)(CC1)C2 [Example 64, 4-(4-(2-(trifluoro-methyl)benzyloxy)bicyclo[2.2.1]heptan-1-yl) butanoic acid] |
| 850 | O=C(O)CCCC12CCC(OCc3csc4ccc(Cl)cc34)(CC1)C2 [Example 30, 4-(4-((5-chlorobenzo[b]thiophen-3-yl)methoxy)bicyclo[2.2.1]heptan-1-yl) butanoic acid] |
| 4960 | CSc1nccc(COC23CCC(CCCC(=O)O)(CC2)C3)n1 [Example 67, 4-(4-((2-(methylthio)pyrimidin-4-yl)methoxy)bicyclo[2.2.1]heptan-1-yl) butanoic acid] |
| 6360 | OCCC12CCC(OCc3cc(F)cc(Oc4ccccc4)c3)(CC1)C2 [Example 99, 2-(4-((3-Fluoro-5-phenoxybenzyl)oxy)bicyclo[2.2.1]heptan-1-yl)ethanol] |
| 1560 | COc1cc(F)cc(COC23CCC(CCCC(=O)O)(CC2)C3)c1 [Example 27, 4-(4-(3-fluoro-5-methoxybenzyl-oxy)bicyclo [2.2.1]heptan-1-yl)butanoic acid] |
| 900 | COc1cc(Cl)cc(COC23CCC(CCCC(=O)O)(CC2)C3)c1 [Example 31, 4-(4-(3-chloro-5-methoxybenzyl-oxy)bicyclo [2.2.1]heptan-1-yl)butanoic acid] |
| 7250 | CC1(C)Cc2cc(Cl)cc(COC34CCC(CCCO)(CC3)C4)c2O1 [Example 70, 3-(4-((5-Chloro-2,2-dimethyl-2,3-dihydrobenzofuran-7-yl)methoxy)bicyclo[2.2.1]heptan-1-yl)propan-1-ol] |
| 1690 | O=C(O)CCCC12CCC(OCc3ccsc3Br)(CC1)C2 [Example 54, 4-(4-((2-bromo-thiophen-3-yl)methoxy)bicyclo [2.2.1]heptan-1-yl)butanoic acid] |
| 620 | O=C(O)CCCC12CCC(OCc3cccc(OC(F)(F)F)c3)(CC1)C2 [Example 26, 4-(4-(3-(trifluoro-methoxy)benzyl-oxy)bicyclo[2.2.1]heptan-1-yl) butanoic acid] |
| 230 | Cc1cc(COC23CCC(CCCC(=O)O)(CC2)C3)cc(OC(F)(F)F)c1 [Example 7, 4-(4-(3-methyl-5-(trifluorometh-oxy)benzyloxy)bicyclo[2.2.1]heptan-1-yl) butanoic acid] |
| 270 | O=C(O)CCCC12CCC(OCc3ccccc3Oc3ccccc3)(CC1)C2 [Example 14, 4-(4-(2-phenoxy-benzyloxy)bicyclo[2.2.1]heptan-1-yl) butanoic acid] |
| 290 | O=C(O)CCCC12CCC(OCc3cccc(C(F)(F)F)c3F)(CC1)C2 [Example 46, 4-(4-(2-fluoro-3-(trifluoromethyl)benzyloxy)bicyclo[2.2.1]heptan-1-yl) butanoic acid] |
| 1000 | CC(CCC12CCC(OCc3ccccc3Oc3ccccc3)(CC1)C2)C(=O)O (centres unmarked) [Example 68, 2-Methyl-4-(4-(2-phenoxybenzyloxy)bicyclo[2.2.1]heptan-1-yl)butanoic acid] |
| 2640 | O=C(O)CCC12CCC(OCCc3cccc(Oc4ccccc4)c3)(CC1)C2 [Example 88, 3-(4-(3-phenoxyphenethoxy)bicyclo[2.2.1]heptan-1-yl)propanoic acid] |
| 1430 | O=C(O)COCC12CCC(OCc3cccc(Oc4ccccc4)c3)(CC1)C2 [Example 74, 2-((4-(3-phenoxybenzyloxy)bicyclo[2.2.1]heptan-1-yl)methoxy)acetic acid] |
| 360 | O=C(O)CCCC12CCC(OCc3cccc(Oc4ccccc4)c3)(CC1)C2 [Example 15, 4-(4-(3-phenoxy-benzyloxy)bicyclo[2.2.1]heptan-1-yl) butanoic acid] |

| Compound | EC50 [nM] |
| --- | --- |
| O=C(O)CCCC12CCC(OCc3cccc(Cl)c3)(CC1)C2 [Example 23, 4-(4-(3-chloro-benzyloxy)bicyclo[2.2.1]heptan-1-yl) butanoic aicd] | 1150 |
| 4-(4-(3-chloro-5- phenoxybenzyl- oxy)bicyclo [2.2.1]heptan- 1-yl)benzoic acid [Example 6] | 450 |
| COC(=O)CCCC12CCC(OCc3cc(F)ccc3-c3ccc(C)cc3)(CC1)C2 [Example 66, methyl 4-(4-((4-fluoro-4′-methyl-[1,1′-biphenyl]-2-yl)methoxy)bicyclo [2.2.1]heptan-1-yl)butanoic] | 370 |
